Measurements: article PMC11157048 (Frontiers in Pharmacology, 2024)
Like-named read-outs stand apart in the source and are kept apart here. Values belong to the compound of their own block, whether it stands above or below them.

What was measured:
[1] = system: rat liver microsomes (RLM); assay: Inhibition of aumolertinib metabolism in rat liver microsomes (screen, IC50, Ki)
Protocol: (§1) When screening for inhibitors, the amount of RLM in the system and the reaction time were optimized and set to 0.5 mg/mL and 30 min, respectively. The concentration of the inhibitor was set at 100 μM. […] The above mixture was pre-incubated at 37 °C for 5 min, and then 1 mM NADPH was added to initiate the reaction, and incubated for another 30 min. Afterwards, 400 μL of cold acetonitrile and 20 μL of diazepam (500 ng/mL) were added to the system to stop the reaction. After vortexing for 2 min, the mixture is centrifuged at 16,200 g for 10 min and the supernatant is subjected to analysis by UPLC-MS/MS for the detection of analytes.

[2] = system: aumolertinib metabolism in human liver microsomes; assay: Inhibition of aumolertinib metabolism in human liver microsomes (IC50, Ki); type: in vitro ADME; conditions: human, human liver microsomes, probe aumolertinib 20 μM
Protocol: as §1

[3] = system: human liver microsomes (HLM); assay: as above; type: in vitro ADME; conditions: HLM
Protocol: as §1

CYP3A4.1 = CYP3A4.1 (Homo sapiens, UniProt P08684)
Sequence of CYP3A4.1 (P08684 whole entry): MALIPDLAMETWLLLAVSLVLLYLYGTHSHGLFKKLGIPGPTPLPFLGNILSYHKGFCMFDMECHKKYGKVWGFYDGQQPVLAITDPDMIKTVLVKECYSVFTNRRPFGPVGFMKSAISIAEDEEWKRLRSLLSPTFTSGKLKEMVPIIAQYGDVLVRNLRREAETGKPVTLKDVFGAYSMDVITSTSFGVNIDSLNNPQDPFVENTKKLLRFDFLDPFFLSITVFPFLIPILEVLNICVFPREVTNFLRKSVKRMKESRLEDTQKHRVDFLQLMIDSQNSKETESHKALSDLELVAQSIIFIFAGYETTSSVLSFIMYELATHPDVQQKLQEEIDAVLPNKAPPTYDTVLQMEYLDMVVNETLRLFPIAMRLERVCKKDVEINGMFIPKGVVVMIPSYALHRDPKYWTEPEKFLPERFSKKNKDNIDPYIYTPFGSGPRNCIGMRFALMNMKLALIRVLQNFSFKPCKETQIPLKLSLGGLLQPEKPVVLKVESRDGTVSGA

[4] = system: aumolertinib metabolism in rat liver microsomes; assay: in vitro; conditions: probe aumolertinib 25 μM
Protocol: as §1

[5] = mouse, in vivo, po
[6] = rat, in vivo, po, 11 mg/kg
[7] = set-up: method as in Zhou et al., 2021; Liu et al., 2022a; Liu et al., 2022b; conditions: ref Zhou et al., 2021, Liu et al., 2022a, 2022b; cited from earlier work
[8] = Pharmacokinetics in AAV8-CYP3A4*1 mice
[9] = aumolertinib 16.5 mg/kg oral alone (Aum)
[10] = carvedilol 7.5 mg/kg 0.5 h before aumolertinib 16.5 mg/kg oral (Car+Aum)

- inhibition mechanism [1]: non-competitive and competitive mixed
- Ki ([1]; Lineweaver-Burk secondary plot): 16.7 µM
- αKi ([1]; Lineweaver-Burk secondary plot): 51.66 µM
- IC50 at 30 min [2]: 12.7 ± 0.59 µM
- inhibition mechanism [3]: non-competitive and competitive mixed
- Ki ([3]; Lineweaver-Burk secondary plot): 8.81 µM
- αKi ([3]; Lineweaver-Burk secondary plot): 47.76 µM
- inhibition mechanism (CYP3A4.1): competitively inhibited
- IC50 at 30 min [4]: 27.3 ± 2.52 µM
SMILES: COc1ccccc1OCCNCC(O)COc1cccc2[nH]c3ccccc3c12 (stereo not shown) [Carvedilol]

SMILES: C=CC(=O)Nc1cc(Nc2nccc(-c3cn(C4CC4)c4ccccc34)n2)c(OC)cc1N(C)CCNC [HAS-719]
- AUC(0-t) [5]: 429.91 ± 178.00 ng·h/mL
- AUC(0-∞) [5]: 572.38 ± 354.11 ng·h/mL
- CLz/F [5]: 586.7 ± 249.8 mL/min/kg
- Cmax [5]: 23.01 ± 11.89 ng/mL
- Tmax [5]: 14.29 ± 13.44 h
- Vz/F [5]: 773.46±1,086.45 L/kg
- t1/2z [5]: 14.62 ± 18.23 h
- CLz/F [6]: 5750.5 ± 2617.5 mL/min/kg
- Vz/F [6]: 1,913.68 ± 1,058.91 L/kg
- t1/2z [6]: 3.69 ± 0.57 h
- plasma exposure relative to the parent drug [7]: 40%
- AUC(0-t) [8, 9]: 905.88 ± 375.90 ng·h/mL
- AUC(0-∞) [8, 9]: 908.18 ± 374.69 ng·h/mL
- CLz/F [8, 9]: 335 ± 128 mL/min/kg
- Cmax [8, 9]: 47.06 ± 20.43 ng/mL
- Tmax [8, 9]: 10.71 ± 9.53 h
- Vz/F [8, 9]: 113.97 ± 104.36 L/kg
- t1/2z [8, 9]: 3.80 ± 2.94 h
- AUC(0-t) [8, 10]: 663.56 ± 198.24 ng·h/mL
- AUC(0-∞) [8, 10]: 669.24 ± 196.18 ng·h/mL
- CLz/F [8, 10]: 423.8 ± 103 mL/min/kg
- Cmax [8, 10]: 34.97 ± 15.02 ng/mL
- Tmax [8, 10]: 17.86 ± 10.53 h
- Vz/F [8, 10]: 203.88 ± 121.79 L/kg
- t1/2z [8, 10]: 5.34 ± 2.61 h

SMILES: CCCc1nc2c(C)cc(-c3nc4ccccc4n3C)cc2n1Cc1ccc(-c2ccccc2C(=O)O)cc1 [Telmisartan]
- inhibition mechanism [1]: mixed (non-competitive and uncompetitive)
- α [1]: 0.54
- α ([1]; listed as telmisartan): < 1
- α [3]: 0.59
- α ([3]; listed as telmisartan): < 1
- IC50 at 30 min [4]: 12.8 ± 0.18 µM
